Columns and labels:
[1] = test system: woodchuck hepatitis virus (WHV); test: Woodchuck model of chronic HBV infection (WHV DNA in serum); assay type: in vivo, woodchucks (Marmota monax)
Procedure: The efficacy of L-dA, L-dT and L-dC against hepadnavirus infection in woodchucks (Marmota monax) chronically infected with woodchuck hepatitis virus (WHV) was determined. This animal model of HBV infection is widely accepted and has proven to be useful for the evaluation of antiviral agents directed against HBV. Experimental groups (n=3 animals/drug group, n=4 animals/control) [table] Drugs were administered by oral gavage once daily, and blood samples taken on days 0, 1, 3, 7, 14, 21, 28, and on post-treatment days +1, +3, +7, +14, +28 and +56. Assessment of the activity and toxicity was based on the reduction of WHV DNA in serum: dot-blot, quantative PCR.

human DNA polymerase β = human DNA polymerase β (Homo sapiens, UniProt P06746); test: Inhibition of human DNA polymerase β (Dixon plot, calf thymus activated DNA, dATP); assay type: biochemical; details: calf thymus activated DNA as template-primer, dATP as substrate; read-out: DNA pol β Ki
human DNA polymerase α = target: T1, human DNA polymerase α (Homo sapiens, UniProt P09884); test: Inhibition of human DNA polymerase α (Dixon plot, calf thymus activated DNA, dATP); assay type: biochemical; details: calf thymus activated DNA as template-primer, dATP as substrate; read-out: DNA pol α Ki
T1 sequence (P09884 1-1462): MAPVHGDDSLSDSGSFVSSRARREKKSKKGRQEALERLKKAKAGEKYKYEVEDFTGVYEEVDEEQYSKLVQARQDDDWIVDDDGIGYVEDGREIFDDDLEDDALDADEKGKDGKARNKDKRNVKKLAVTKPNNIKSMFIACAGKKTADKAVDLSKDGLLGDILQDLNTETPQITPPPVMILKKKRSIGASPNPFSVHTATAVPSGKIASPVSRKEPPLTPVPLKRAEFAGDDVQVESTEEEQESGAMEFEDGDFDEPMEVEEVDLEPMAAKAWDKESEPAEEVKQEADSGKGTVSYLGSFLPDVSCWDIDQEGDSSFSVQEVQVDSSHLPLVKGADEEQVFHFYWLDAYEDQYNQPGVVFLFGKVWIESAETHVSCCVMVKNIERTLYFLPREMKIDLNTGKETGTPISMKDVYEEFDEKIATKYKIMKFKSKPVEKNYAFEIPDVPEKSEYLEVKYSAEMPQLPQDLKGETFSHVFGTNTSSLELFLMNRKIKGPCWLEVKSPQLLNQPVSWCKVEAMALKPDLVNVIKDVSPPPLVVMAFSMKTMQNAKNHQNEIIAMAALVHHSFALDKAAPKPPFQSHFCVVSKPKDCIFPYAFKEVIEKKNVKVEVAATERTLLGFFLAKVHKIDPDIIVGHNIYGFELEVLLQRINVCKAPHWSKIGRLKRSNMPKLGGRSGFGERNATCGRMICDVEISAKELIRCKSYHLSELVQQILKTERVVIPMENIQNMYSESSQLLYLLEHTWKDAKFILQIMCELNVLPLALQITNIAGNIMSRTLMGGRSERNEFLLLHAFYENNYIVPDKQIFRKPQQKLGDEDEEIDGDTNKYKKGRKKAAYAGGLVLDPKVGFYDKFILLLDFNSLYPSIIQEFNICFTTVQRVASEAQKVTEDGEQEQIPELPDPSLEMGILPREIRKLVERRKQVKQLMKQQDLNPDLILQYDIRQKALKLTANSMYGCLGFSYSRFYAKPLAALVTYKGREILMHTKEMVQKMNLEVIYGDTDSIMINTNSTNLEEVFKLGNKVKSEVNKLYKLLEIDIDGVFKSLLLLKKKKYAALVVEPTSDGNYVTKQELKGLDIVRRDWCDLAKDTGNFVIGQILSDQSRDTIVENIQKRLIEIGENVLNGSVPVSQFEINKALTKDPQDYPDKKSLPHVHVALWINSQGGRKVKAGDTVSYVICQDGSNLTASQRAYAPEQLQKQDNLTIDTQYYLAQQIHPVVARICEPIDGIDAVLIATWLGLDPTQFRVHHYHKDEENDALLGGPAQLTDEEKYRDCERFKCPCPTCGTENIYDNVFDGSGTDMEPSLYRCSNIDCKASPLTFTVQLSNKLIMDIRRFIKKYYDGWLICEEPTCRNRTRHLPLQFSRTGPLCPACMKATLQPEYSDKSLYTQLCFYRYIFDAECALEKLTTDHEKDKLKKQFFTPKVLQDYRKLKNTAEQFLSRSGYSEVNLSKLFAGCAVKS

[2] = target: woodchuck hepatitis virus (WHV) DNA polymerase (Woodchuck hepatitis B virus, UniProt P03160); test: Inhibition of woodchuck hepatitis virus (WHV) DNA polymerase by triphosphates
human DNA polymerase γ = target: T2, human DNA polymerase γ (Homo sapiens, UniProt P54098); test: Inhibition of human DNA polymerase γ (Dixon plot, calf thymus activated DNA, dATP); assay type: biochemical; details: calf thymus activated DNA as template-primer, dATP as substrate; read-out: DNA pol γ Ki
T2 sequence (P54098 1-1239): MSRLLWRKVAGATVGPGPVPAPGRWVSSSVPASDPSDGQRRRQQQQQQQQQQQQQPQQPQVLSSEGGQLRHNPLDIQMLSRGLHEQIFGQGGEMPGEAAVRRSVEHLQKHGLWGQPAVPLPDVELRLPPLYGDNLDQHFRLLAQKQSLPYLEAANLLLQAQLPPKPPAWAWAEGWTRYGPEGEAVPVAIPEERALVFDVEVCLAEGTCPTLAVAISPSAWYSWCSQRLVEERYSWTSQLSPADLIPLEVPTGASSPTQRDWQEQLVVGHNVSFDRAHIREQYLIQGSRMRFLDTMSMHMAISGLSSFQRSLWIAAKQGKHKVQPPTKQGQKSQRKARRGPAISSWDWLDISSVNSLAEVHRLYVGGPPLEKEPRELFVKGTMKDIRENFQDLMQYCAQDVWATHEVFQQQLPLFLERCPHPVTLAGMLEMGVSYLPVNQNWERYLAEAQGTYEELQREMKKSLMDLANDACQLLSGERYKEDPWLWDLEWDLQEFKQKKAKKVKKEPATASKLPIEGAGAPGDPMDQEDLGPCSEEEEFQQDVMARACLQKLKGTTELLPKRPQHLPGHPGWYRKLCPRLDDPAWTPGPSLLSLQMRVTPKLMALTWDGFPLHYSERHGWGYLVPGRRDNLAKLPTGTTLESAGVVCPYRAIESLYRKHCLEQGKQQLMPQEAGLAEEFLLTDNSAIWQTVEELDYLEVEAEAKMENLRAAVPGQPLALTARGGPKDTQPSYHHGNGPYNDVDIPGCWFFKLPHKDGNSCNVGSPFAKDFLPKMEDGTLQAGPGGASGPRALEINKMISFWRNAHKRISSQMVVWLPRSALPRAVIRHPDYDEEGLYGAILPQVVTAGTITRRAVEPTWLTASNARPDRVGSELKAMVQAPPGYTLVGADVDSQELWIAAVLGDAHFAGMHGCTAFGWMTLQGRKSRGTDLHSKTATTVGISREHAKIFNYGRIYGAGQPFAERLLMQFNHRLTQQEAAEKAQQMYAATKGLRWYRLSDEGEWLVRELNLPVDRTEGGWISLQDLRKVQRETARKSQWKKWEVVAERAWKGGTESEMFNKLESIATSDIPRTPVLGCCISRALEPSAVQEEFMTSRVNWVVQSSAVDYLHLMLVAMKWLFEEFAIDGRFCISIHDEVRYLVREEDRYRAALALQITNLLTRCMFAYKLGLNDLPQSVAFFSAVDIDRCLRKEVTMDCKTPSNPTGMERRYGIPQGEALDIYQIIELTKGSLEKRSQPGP

Sequence of woodchuck hepatitis virus (WHV) DNA polymerase (P03160 whole entry): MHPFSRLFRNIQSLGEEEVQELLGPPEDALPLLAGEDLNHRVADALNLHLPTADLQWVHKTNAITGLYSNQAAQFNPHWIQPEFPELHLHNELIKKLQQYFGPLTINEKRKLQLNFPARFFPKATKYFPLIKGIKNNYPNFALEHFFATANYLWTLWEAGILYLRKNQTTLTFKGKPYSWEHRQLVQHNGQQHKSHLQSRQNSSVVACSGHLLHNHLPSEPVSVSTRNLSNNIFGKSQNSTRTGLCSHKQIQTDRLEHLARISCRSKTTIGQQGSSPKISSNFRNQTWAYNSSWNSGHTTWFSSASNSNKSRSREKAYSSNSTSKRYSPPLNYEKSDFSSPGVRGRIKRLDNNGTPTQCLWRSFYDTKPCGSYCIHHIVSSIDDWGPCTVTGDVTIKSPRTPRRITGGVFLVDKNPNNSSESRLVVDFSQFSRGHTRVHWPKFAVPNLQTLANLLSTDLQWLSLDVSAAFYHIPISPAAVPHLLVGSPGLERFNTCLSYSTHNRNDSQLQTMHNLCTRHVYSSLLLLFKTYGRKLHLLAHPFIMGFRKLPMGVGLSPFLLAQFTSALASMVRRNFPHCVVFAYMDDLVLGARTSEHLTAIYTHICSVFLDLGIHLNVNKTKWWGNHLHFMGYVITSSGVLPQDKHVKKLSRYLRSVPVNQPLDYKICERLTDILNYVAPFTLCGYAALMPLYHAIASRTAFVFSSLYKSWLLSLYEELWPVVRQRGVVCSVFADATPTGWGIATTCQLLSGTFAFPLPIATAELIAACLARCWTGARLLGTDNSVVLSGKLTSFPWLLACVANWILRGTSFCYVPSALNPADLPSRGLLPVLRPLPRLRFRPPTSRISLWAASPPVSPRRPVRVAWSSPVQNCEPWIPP

Structure (SMILES): Nc1ncnc2c1ncn2[C@@H]1C[C@@H](O)[C@H](CO)O1 [β-L-dA, 2′-Deoxy-β-L-adenosine]
- activity compared with 3TC (lamivudine) [1]: more active than 3TC (lamivudine)
- viral load reduced to (level) [1]: nearly undetectable

Structure (SMILES): Nc1ncnc2c1ncn2[C@@H]1C[C@@H](O)[C@H](COP(=O)(O)OP(=O)(O)OP(=O)(O)O)O1 [β-L-dA-TP]
- Ki (human DNA polymerase β): > 100 µM
- Ki (human DNA polymerase α): > 100 µM
- IC50 [2]: 2300 nM

Structure (SMILES): Nc1ccn([C@@H]2C[C@@H](O)[C@H](CO)O2)c(=O)n1 [β-L-dC, 2′-Deoxy-β-L-cytidine]
- activity compared with 3TC (lamivudine) [1]: more active than 3TC (lamivudine)
- viral load reduced to (level) [1]: nearly undetectable

Structure (SMILES): Nc1ccn([C@@H]2C[C@@H](O)[C@H](COP(=O)(O)OP(=O)(O)OP(=O)(O)O)O2)c(=O)n1 [β-L-dC-TP]
- Ki (human DNA polymerase β): > 100 µM
- Ki (human DNA polymerase γ): > 100 µM
- Ki (human DNA polymerase α): > 100 µM
- IC50 [2]: 2000 nM

Structure (SMILES): Cc1cn([C@@H]2C[C@@H](O)[C@H](CO)O2)c(=O)[nH]c1=O [β-L-dT, 2′-Deoxy-β-L-Thymidine]
- activity compared with 3TC (lamivudine) [1]: more active than 3TC (lamivudine)
- viral load reduced to (level) [1]: undetectable
- viral rebound after withdrawal ([1]; post-treatment): not detected for at least two weeks

Structure (SMILES): Cc1cn([C@@H]2C[C@@H](O)[C@H](COP(=O)(O)OP(=O)(O)OP(=O)(O)O)O2)c(=O)[nH]c1=O [β-L-dT-TP]
- Ki (human DNA polymerase β): > 100 µM
- Ki (human DNA polymerase γ): > 100 µM
- Ki (human DNA polymerase α): > 100 µM
- IC50 [2]: 340 nM

Structure (SMILES): O=c1ccn([C@@H]2C[C@@H](O)[C@H](COP(=O)(O)OP(=O)(O)OP(=O)(O)O)O2)c(=O)[nH]1 [β-L-dU-TP]
- Ki (human DNA polymerase β): > 100 µM
- Ki (human DNA polymerase γ): > 100 µM
- Ki (human DNA polymerase α): > 100 µM
- IC50 [2]: 8000 nM

Source: US6566344B1, “β-L-2′-deoxy-nucleosides for the treatment of hepatitis B” (priority 1998, dated 2003)
